In US20230046998A1, “COMPOSITION FOR PREVENTING OR TREATING KELOID” (CHUNGNAM NATIONAL UNIVERSITY HOSPITAL, priority 2021, published 2023):

Assays:
[1] = tested on: human keloid tissue-derived fibroblasts; assay: Cell viability of human keloid tissue-derived fibroblasts after TUDCA treatment (WST-1); format: cell-based; settings: 6 hours, 12 hours, and 24 hours after TUDCA treatment (FIG. 5A)
Description: (§1) Human keloid-derived fibroblasts and normal skin-derived fibroblasts were cultured in Dulbecco's modified Eagle's medium (DMEM; Invitrogen), 10% fetal bovine serum (FBS; Hyclone, Logan, Utah, USA), 100 U/mL penicillin and 100 µg/mL streptomycin (Invitrogen) media at 5% CO2. Keloid-derived fibroblasts are placed 1×10^4/well on 96-well plates, after treatment with tauroursodeoxycholic acid (TUDCA; Merck Millipore, Billerica, Mass., USA) for 24 hours, cell proliferation was measured with an enzyme-linked immunosorbent assay reader using a 450 nm WST-1 (Roche Diagnostics Corporation, Indianapolis, Ind., USA) assay.
(§2) After treatment with TUDCA, the viability of human keloid tissue-derived fibroblasts and normal skin tissue-derived fibroblasts was evaluated.

[2] = tested on: normal skin tissue-derived fibroblasts; assay: Cell viability of normal skin tissue-derived fibroblasts after TUDCA treatment (WST-1); format: cell-based, human; settings: 12 hours after exposure to TUDCA; smaller effect than in keloid fibroblasts (FIG. 5C)
Description: as §1, §2

[3] = tested on: COL1A2 and ER stress-related gene expression in human keloid tissue-derived fibroblasts; assay: COL1A2 and ER stress-related gene expression in TUDCA-treated keloid fibroblasts; format: cell-based; settings: TUDCA-treated human keloid tissue-derived fibroblasts (FIG. 5B)
[4] = tested on: keloid pathway markers p-SMAD2/3 and TGFβ1; assay: Western blotting of keloid pathway markers in fibroblasts; format: cell-based, human; settings: significant difference in keloid-derived versus normal skin-derived fibroblasts (FIG. 5D)
Description: Tissues were homogenized using a TissueLyzer II (Qiagen, Hilden, Germany). Cells and tissues were lysed in RIPA buffer (30 mM Tris [pH 7.5], 150 mM sodium chloride, 1 mM sodium phenylmethylsulfonyl fluoride, 1 mM sodium orthovanadate, 1% Nonidet P-40, 10% glycerol, phosphatase and protease inhibitors). Western blot analysis was performed with 40 μg of protein using a commercially available antibody. Anti-CHOP, anti-pERK, anti-ERK, anti-IRE1α, anti-pIRE1α, anti-pSMAD2/3 and anti-β-actin antibodies were purchased from Cell Signaling Technology (Beverly, Mass., USA). Anti-COL1A1, anti-ATF4, anti-TGFβ1, anti-IL-1 antibodies and secondary antibodies were purchased from Santa Cruz Biotechnology (Santa Cruz, Calif., USA) was used. Immune response bands were visualized by enhanced chemiluminescence (ECL) (Bio-Rad, Hercules, Calif., USA), and images were scanned using an Odyssey imaging system and quantified using Image Studio Digits (LI-COR Biosciences, Lincoln, Nebr., USA).
Human keloid-derived fibroblasts and normal skin-derived fibroblasts were cultured in Dulbecco's modified Eagle's medium (DMEM; Invitrogen), 10% fetal bovine serum (FBS; Hyclone, Logan, Utah, USA), 100 U/mL penicillin and 100 µg/mL streptomycin (Invitrogen) media at 5% CO2. […]
as §2

[5] = tested on: rabbit ear scar (keloid animal model); assay: Rabbit ear scar model, intralesional injection; format: in vivo, New Zealand white rabbit
Description: Animal studies were performed with the approval of the Preclinical Research Center (CNUH-019-A0079) of Chungnam National University Hospital. A 12-month-old female New Zealand white rabbit weighing about 4 kg was purchased from Damul Science (Daejeon, Korea), and all rabbits were kept individually in cages and received humane care according to institutional guidelines. After anesthetizing rabbits with a mixture of ketamine (60 mg/kg) and xylazine (5 mg/kg), the side ear hairs were shaved, disinfected with povidone-iodine, and then anesthetized. Next, after using a 10 mm biopsy punch to make 2 circular wounds with a diameter of 10 mm on the ventral surface of each ear, and covering the wound with an adhesive polyurethane dressing (Tegaderm; 3M, Minneapolis, Minn., USA), and once a day, the wound areas were disinfected with physiological saline and observed, and the adhesive polyurethane dressing was replaced. After wound formation, a simple dressing was maintained for 20 days to form a thick scar tissue, and on days 20 and 25 after wounding, saline, steroid (10 mg/mL) or TUDCA (10 mg/mL) was administered to the dermal region of the rabbit ear scar using a 30-gauge syringe (FIG. 1).
6. Scar Elevation Index (SEI) Calculation (Methods for Evaluating Keloid Tissue) SEI gives the ratio of total hypertrophic scar area to normal tissue present beneath the scar. In the present invention, the region where the cartilage layer is left as it is and the skin layer is excised is the B region. Area A contains an excessive amount of soft tissue compared to the surrounding normal dermal layer. An SEI greater than 1 indicates the formation of hypertrophic scars, keloids (FIG. 2).
Next, the efficacy of TUDCA for keloid improvement in a rabbit ear scar model was investigated.
On days 20 and 25 after wounding, normal saline (NS), steroids (10 mg/mL) or TUDCA (10 mg/mL) were injected into the scar dermis.

C[C@H](CCC(=O)NCCS(=O)(=O)O)[C@H]1CC[C@H]2[C@@H]3[C@@H](O)C[C@@H]4C[C@H](O)CC[C@]4(C)[C@H]3CC[C@]12C [TUDCA, tauroursodeoxycholic acid]
cell viability [1]: significantly decreased
viability of normal skin tissue-derived fibroblasts [2]: decreased
COL1A2 gene expression level [3]: significantly reduced
ER stress-related gene expression levels [3]: significantly reduced
level of TGFβ1 [4]: reduced
level of p-SMAD2/3 [4]: reduced
gross appearance / healing of rabbit ear scars ([5]; 10 mg/mL injected into scar dermis on days 20 and 25 after wounding, compared with saline group (FIG. 7)): healed better
Scar Elevation Index (SEI) ([5]; 10 mg/mL intralesional, days 20 and 25, control group 2.778±0.346, p=0.0263 steroid, p=0.0098 TUDCA vs control): 1.586±0.074
irregular fiber deposition in scar tissue (H&E) ([5]; 10 mg/mL intralesional, days 20 and 25, tissue collected day 34, compared to saline group (FIG. 8)): significantly reduced
decrease in SEI compared with the steroid group ([5]; rabbit ear scar model, p=0.0215): significantly greater decrease
